# Assay results taken from PubChem BioAssay (NCI).
#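 Results reflect a 48-hour exposure of cells in 96-well plates to compound at five concentrations. TGI: concentration producing complete growth inhibition.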
# How the values were obtained:
# Experiment in all cases: NCI anticancer screen, dose series, 48 h
# SR leukemia = system: SR leukemia
# HT29 colon = system: HT29 colon
# SK-OV-3 ovarian = system: SK-OV-3 ovarian
# M14 melanoma = system: M14 melanoma
# SNB-75 CNS = system: SNB-75 CNS
# CCRF-CEM leukemia = system: CCRF-CEM leukemia
# HS 578T breast = system: HS 578T breast
# U251 CNS = system: U251 CNS
# NCI-H226 lung = system: NCI-H226 lung
# HCC-2998 colon = system: HCC-2998 colon
# 786-0 renal = system: 786-0 renal
# BT-549 breast = system: BT-549 breast
# SW-620 colon = system: SW-620 colon
# HOP-92 NSCLC = system: HOP-92 NSCLC
# IGROV1 ovarian = system: IGROV1 ovarian
# KM12 colon = system: KM12 colon
# SF-295 CNS = system: SF-295 CNS
# MOLT-4 leukemia = system: MOLT-4 leukemia
# HCT-116 colon = system: HCT-116 colon
# NCI-H522 lung = system: NCI-H522 lung
# A549 NSCLC = system: A549 NSCLC
# EKVX NSCLC = system: EKVX NSCLC
# OVCAR-5 ovarian = system: OVCAR-5 ovarian
# SK-MEL-28 melanoma = system: SK-MEL-28 melanoma
# RPMI-8226 leukemia = system: RPMI-8226 leukemia
# MCF7 breast = system: MCF7 breast
# OVCAR-8 ovarian = system: OVCAR-8 ovarian
# TK-10 renal = system: TK-10 renal
# HL-60(TB) leukemia = system: HL-60(TB) leukemia
# COLO 205 colon = system: COLO 205 colon
# LOX IMVI melanoma = system: LOX IMVI melanoma
# OVCAR-3 ovarian = system: OVCAR-3 ovarian
# RXF 393 renal = system: RXF 393 renal
# ACHN renal = system: ACHN renal
# SK-MEL-2 melanoma = system: SK-MEL-2 melanoma
# CAKI-1 renal = system: CAKI-1 renal
# HOP-62 NSCLC = system: HOP-62 NSCLC
# A498 renal = system: A498 renal
# DU-145 prostate = system: DU-145 prostate
# UACC-257 melanoma = system: UACC-257 melanoma
# NCI-H460 lung = system: NCI-H460 lung
# MDA-MB-435 = system: MDA-MB-435
# OVCAR-4 ovarian = system: OVCAR-4 ovarian
# SNB-19 CNS = system: SNB-19 CNS
# NCI-H23 lung = system: NCI-H23 lung
# SK-MEL-5 melanoma = system: SK-MEL-5 melanoma
# UO-31 renal = system: UO-31 renal
# SF-268 CNS = system: SF-268 CNS
# MDA-MB-231 breast = system: MDA-MB-231 breast
# SN12C renal = system: SN12C renal
# PC-3 prostate = system: PC-3 prostate
# NCI/ADR-RES ovarian = system: NCI/ADR-RES ovarian
# K-562 leukemia = system: K-562 leukemia
# MDA-N = system: MDA-N
# T-47D breast = system: T-47D breast
# HCT-15 colon = system: HCT-15 colon
# UACC-62 melanoma = system: UACC-62 melanoma
# MALME-3M melanoma = system: MALME-3M melanoma
# SF-539 CNS = system: SF-539 CNS
smiles,measurement,setting,value
O=C1/C(=C\c2ccco2)Oc2ccccc21,TGI,SR leukemia,> 100 µM
same,TGI,HT29 colon,> 100 µM
same,TGI,SK-OV-3 ovarian,> 100 µM
same,TGI,M14 melanoma,> 100 µM
same,TGI,SNB-75 CNS,> 100 µM
same,TGI,CCRF-CEM leukemia,> 100 µM
same,TGI,HS 578T breast,> 100 µM
same,TGI,U251 CNS,> 100 µM
same,TGI,NCI-H226 lung,> 100 µM
same,TGI,HCC-2998 colon,> 100 µM
same,TGI,786-0 renal,> 100 µM
same,TGI,BT-549 breast,> 100 µM
same,TGI,SW-620 colon,> 100 µM
same,TGI,HOP-92 NSCLC,> 100 µM
same,TGI,IGROV1 ovarian,> 100 µM
same,TGI,KM12 colon,> 100 µM
same,TGI,SF-295 CNS,> 100 µM
same,TGI,MOLT-4 leukemia,> 100 µM
same,TGI,HCT-116 colon,> 100 µM
same,TGI,NCI-H522 lung,> 100 µM
same,TGI,A549 NSCLC,> 100 µM
same,TGI,EKVX NSCLC,> 100 µM
same,TGI,OVCAR-5 ovarian,> 100 µM
same,TGI,SK-MEL-28 melanoma,> 100 µM
same,TGI,RPMI-8226 leukemia,> 100 µM
same,TGI,MCF7 breast,> 100 µM
same,TGI,OVCAR-8 ovarian,> 100 µM
same,TGI,TK-10 renal,> 100 µM
same,TGI,HL-60(TB) leukemia,> 100 µM
same,TGI,COLO 205 colon,> 100 µM
same,TGI,LOX IMVI melanoma,> 100 µM
same,TGI,OVCAR-3 ovarian,> 100 µM
same,TGI,RXF 393 renal,> 100 µM
same,TGI,ACHN renal,> 100 µM
same,TGI,SK-MEL-2 melanoma,> 100 µM
same,TGI,CAKI-1 renal,> 100 µM
same,TGI,HOP-62 NSCLC,> 100 µM
same,TGI,A498 renal,> 100 µM
same,TGI,DU-145 prostate,> 100 µM
same,TGI,UACC-257 melanoma,> 100 µM
same,TGI,NCI-H460 lung,> 100 µM
same,TGI,MDA-MB-435,> 100 µM
same,TGI,OVCAR-4 ovarian,> 100 µM
same,TGI,SNB-19 CNS,> 100 µM
same,TGI,NCI-H23 lung,> 100 µM
same,TGI,SK-MEL-5 melanoma,> 100 µM
same,TGI,UO-31 renal,> 100 µM
same,TGI,SF-268 CNS,> 100 µM
same,TGI,MDA-MB-231 breast,> 100 µM
same,TGI,SN12C renal,> 100 µM
same,TGI,PC-3 prostate,> 100 µM
same,TGI,NCI/ADR-RES ovarian,> 100 µM
same,TGI,K-562 leukemia,> 100 µM
same,TGI,MDA-N,> 100 µM
same,TGI,T-47D breast,> 100 µM
same,TGI,HCT-15 colon,> 100 µM
same,TGI,UACC-62 melanoma,> 100 µM
Oc1[nH]c2ccccc2c1C1=Nc2ccccc2/C1=N\OCCOC1OCC(O)C(O)C1O (stereo not given),TGI,SR leukemia,> 100 µM
same,TGI,HT29 colon,> 100 µM
same,TGI,SK-OV-3 ovarian,7.99 µM
same,TGI,M14 melanoma,> 100 µM
same,TGI,SNB-75 CNS,> 100 µM
same,TGI,MALME-3M melanoma,> 100 µM
same,TGI,CCRF-CEM leukemia,> 100 µM
same,TGI,HS 578T breast,> 100 µM
same,TGI,U251 CNS,> 100 µM
same,TGI,NCI-H226 lung,> 100 µM
same,TGI,HCC-2998 colon,> 100 µM
same,TGI,786-0 renal,> 100 µM
same,TGI,BT-549 breast,> 100 µM
same,TGI,SW-620 colon,> 100 µM
same,TGI,HOP-92 NSCLC,> 100 µM
same,TGI,IGROV1 ovarian,> 100 µM
same,TGI,SF-539 CNS,> 100 µM
same,TGI,KM12 colon,> 100 µM
same,TGI,SF-295 CNS,> 100 µM
same,TGI,MOLT-4 leukemia,> 100 µM
same,TGI,HCT-116 colon,> 100 µM
same,TGI,NCI-H522 lung,> 100 µM
same,TGI,A549 NSCLC,> 100 µM
same,TGI,EKVX NSCLC,> 100 µM
same,TGI,OVCAR-5 ovarian,> 100 µM
same,TGI,SK-MEL-28 melanoma,> 100 µM
same,TGI,RPMI-8226 leukemia,> 100 µM
same,TGI,MCF7 breast,> 100 µM
same,TGI,OVCAR-8 ovarian,> 100 µM
same,TGI,TK-10 renal,> 100 µM
same,TGI,HL-60(TB) leukemia,> 100 µM
same,TGI,COLO 205 colon,> 100 µM
same,TGI,LOX IMVI melanoma,> 100 µM
same,TGI,OVCAR-3 ovarian,> 100 µM
same,TGI,RXF 393 renal,> 100 µM
same,TGI,ACHN renal,> 100 µM
same,TGI,SK-MEL-2 melanoma,> 100 µM
same,TGI,CAKI-1 renal,> 100 µM
same,TGI,HOP-62 NSCLC,> 100 µM
same,TGI,DU-145 prostate,> 100 µM
same,TGI,UACC-257 melanoma,> 100 µM
same,TGI,NCI-H460 lung,> 100 µM
same,TGI,MDA-MB-435,> 100 µM
same,TGI,OVCAR-4 ovarian,> 100 µM
same,TGI,SNB-19 CNS,> 100 µM
same,TGI,NCI-H23 lung,> 100 µM
same,TGI,SK-MEL-5 melanoma,> 100 µM
same,TGI,UO-31 renal,> 100 µM
same,TGI,SF-268 CNS,> 100 µM
same,TGI,MDA-MB-231 breast,> 100 µM
same,TGI,SN12C renal,> 100 µM
same,TGI,PC-3 prostate,> 100 µM
same,TGI,NCI/ADR-RES ovarian,> 100 µM
same,TGI,K-562 leukemia,> 100 µM
same,TGI,MDA-N,> 100 µM
same,TGI,T-47D breast,> 100 µM
same,TGI,HCT-15 colon,> 100 µM
same,TGI,UACC-62 melanoma,> 100 µM
